Test results as given in patent US20260364184A1, “COMPOUND BASED ON OXOISOINDOLINYL-SUBSTITUTED TETRAHYDROPYRIMIDINE-DIONE AND USE THEREOF” (GLUETACS THERAPEUTICS (SHANGHAI) CO., LTD., priority 2023, published 2026).

How the values were obtained:
BTK = target: T1, BTK (Homo sapiens, UniProt Q06187); assay: Western blot degradation of BTK; type: cell-based; settings: Table IIA4, BTK inhibitor-based
T1 construct: expression of target proteins in cells; endogenous in cells
Description: Conventional Western blot assay was performed to evaluate the effects of the compounds of the present disclosure on the expression of target proteins in cells.
(1) Cell Seeding and Protein Harvesting: The selected cells were processed according to the cell seeding procedure and protein harvesting procedure in Table II-2.
(2) To the collected supernatant, 5×SDS sample loading buffer was added, followed by denaturation at 95 °C for 5 minutes. The denatured samples were then separated by SDS-PAGE electrophoresis on a polyacrylamide gel. Proteins were transferred to a nitrocellulose membrane (0.45 μm NC membrane), blocked with blocking buffer at room temperature for 1 hour, and subjected to antibody incubation and development procedures according to the antibody manufacturer's instructions (Cell Signaling Technology).
Half-Maximal Degradation Concentration value (the drug concentration required for degrading proteins by 50%, abbreviated as DC50) reads method: comparing the grayscale values of Western blot bands from drug-treated samples with those from blank DMSO-treated controls, and identifying the drug concentration range at which the grayscale value is half that of the DMSO-treated control bands.
DC50 values can be calculated using ImageJ software to measure grayscale values of Western blot bands from drug-treated samples. The concentration-response curve is fitted to estimate the drug concentration corresponding to half the grayscale value.
Target protein remaining (%) refers to the percentage of target protein remaining in cells after treatment with protein degrader compounds.
Calculation method for target protein remaining (%): Use ImageJ software to measure grayscale values of Western blot bands from drug (protein degrader)-treated samples. The grayscale value of drug-treated bands is divided by that of internal control protein bands, and the resulting quotient is normalized to obtain the relative percentage of remaining target protein after protein degrader treatment.
Target protein degradation rate (%)=1−target protein remaining (%).

[1] = target: T2, human Cereblon WT GST-tagged protein (CRBN) (Homo sapiens, UniProt Q96SW2); assay: CRBN binding by HTRF (Cereblon binding kit)
T2 construct: purchased CISBIO 64BDCRBNPEH
T2 sequence (Q96SW2 whole entry): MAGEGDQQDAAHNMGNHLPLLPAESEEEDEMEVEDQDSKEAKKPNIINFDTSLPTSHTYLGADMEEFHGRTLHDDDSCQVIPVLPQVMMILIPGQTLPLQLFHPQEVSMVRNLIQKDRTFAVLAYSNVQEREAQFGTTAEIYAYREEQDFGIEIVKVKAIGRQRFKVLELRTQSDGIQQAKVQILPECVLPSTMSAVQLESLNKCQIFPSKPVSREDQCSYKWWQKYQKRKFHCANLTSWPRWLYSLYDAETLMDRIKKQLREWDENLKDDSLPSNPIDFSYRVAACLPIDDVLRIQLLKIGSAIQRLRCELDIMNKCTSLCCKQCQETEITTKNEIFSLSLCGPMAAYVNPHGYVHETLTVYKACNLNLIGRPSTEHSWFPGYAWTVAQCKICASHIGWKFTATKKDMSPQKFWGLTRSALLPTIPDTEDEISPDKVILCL
In short: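 GST-tagged human Cereblon WT was incubated 3 h at room temperature with compound, thalidomide-Re tracer and Eu anti-GST antibody. Final compound concentrations were 10 to 0.00064 µM (7 points) or 2 and 0.5 µM. Inhibition rate was calculated from HTRF 665/620 nm ratios versus solvent and blank controls.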

T1 sequence (Q06187 whole entry): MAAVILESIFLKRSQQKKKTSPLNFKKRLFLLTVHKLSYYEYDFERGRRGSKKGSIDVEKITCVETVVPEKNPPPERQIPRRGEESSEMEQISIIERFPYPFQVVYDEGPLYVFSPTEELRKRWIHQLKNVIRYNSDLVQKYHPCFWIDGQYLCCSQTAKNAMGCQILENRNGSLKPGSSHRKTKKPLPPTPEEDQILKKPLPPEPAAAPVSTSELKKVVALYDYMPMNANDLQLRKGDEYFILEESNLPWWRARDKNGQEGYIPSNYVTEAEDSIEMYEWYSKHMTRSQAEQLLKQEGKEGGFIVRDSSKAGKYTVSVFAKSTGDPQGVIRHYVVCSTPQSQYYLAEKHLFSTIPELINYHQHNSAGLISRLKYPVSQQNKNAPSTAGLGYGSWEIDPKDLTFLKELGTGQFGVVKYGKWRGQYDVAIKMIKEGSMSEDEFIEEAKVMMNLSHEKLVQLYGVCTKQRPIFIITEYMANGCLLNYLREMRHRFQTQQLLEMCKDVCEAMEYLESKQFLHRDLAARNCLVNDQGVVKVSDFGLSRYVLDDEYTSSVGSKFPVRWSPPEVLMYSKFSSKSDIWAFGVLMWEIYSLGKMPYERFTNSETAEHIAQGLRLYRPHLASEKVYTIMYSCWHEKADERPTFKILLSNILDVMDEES

Nc1ncnc2c1c(-c1ccc(Oc3ccccc3)cc1)nn2C1CCN(CC2CCN(c3cccc4c3C(=O)N(N3CCC(=O)NC3=O)C4=O)CC2)CC1 [GT-05077, 4-(4-((4-(4-amino-3-(4-phenoxyphenyl)-1H-pyrazolo[3,4-d]pyrimidin-1-yl)piperidin-1-yl)methyl)piperidin-1-yl)-2-(2,4-dioxotetrahydropyrimidin-1(2H)-yl)isoindoline-1,3-dione]
Degradation of substrate protein BTK (substrate protein remaining %) (BTK): A (0%≤substrate protein remaining %≤80%)

Nc1ncnc2c1c(-c1ccc(Oc3ccccc3)cc1)nn2C1CCN(CC2CCN(C3CCN(c4ccc5c(c4)C(=O)N(N4CCC(=O)NC4=O)C5=O)CC3)CC2)CC1 [GT-05096, 5-(4-((4-(4-amino-3-(4-phenoxyphenyl)-1H-pyrazolo[3,4-d]pyrimidin-1-yl)piperidin-1-yl)methyl)-[1,4′-bipiperidin]-1′-yl)-2-(2,4-dioxotetrahydropyrimidin-1(2H)-yl)isoindoline-1,3-dione]
Degradation of substrate protein BTK (substrate protein remaining %) (BTK): A (0%≤substrate protein remaining %≤80%) | inhibition at 0.5 µM ([1]; 0.5 μM, read-out: Inhibition Rate at 0.5 μM (%)): 10 to 20% | inhibition at 2 µM ([1]; 2 μM, read-out: Inhibition Rate at 2 μM (%)): 53 to 60%
